The subject of data set [1] is rat (SHR), blood pressure and heart rate. The data set is described as follows: Depressor response of trans- and cis-forms, dose-response intravenous, Tables 5 and 6. It is filed as in vivo. Conditions: for ED40: Rattus norvegicus, intravenous, from regression line. The procedure:
Male spontaneously hypertensive rats (SHR) which had mean arterial blood pressures higher than 140 mmHg were used for the experiments. Arterial blood pressure was measured through the catherized artery with a pressure transducer (MPU-0.5, manufactured by Nihon Kohden Kabushiki Kaisha). The catheter was inserted into the abdominal aorta via the median coccygcal artery of SHR under light ether anesthesia. The recordings were made on a rectigraph (manufactured by Sanei Sokki Kabushiki Kaisha). The 1,4-dihydropyridine derivatives prepared in the foregoing examples were administered with catheter which was inserted previously into the caudal vein or duodenum at least two hours after the operation. SHR were restrained with wire mesh cage immediately after the operation. […]

Data set [2] concerns Male spontaneously hypertensive rats (SHR), arterial blood pressure. The data set is described as follows: Depressor response after intravenous administration (30 μg/kg), Table 1. It is filed as in vivo, rat. The note with it: for Duration: '90<' means greater than 90. Put shortly:
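Conscious restrained SHR with mean arterial pressure above 140 mmHg; pressure recorded via abdominal aortic catheter and transducer. Dosing was at least 2 h after surgery, through a caudal vein catheter. Compound was given in 1.5% PVP/ethanol diluted with 0.9% saline.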

Data set [3] shares this test system. The data set can be described thus: Depressor response after intraduodenal administration (1 mg/kg), Table 2. It is filed as in vivo, rat. The note with it: for Half-life: '120<' means greater than 120. The procedure:
Arterial blood pressure was measured through the catherized artery with a pressure transducer (MPU-0.5, manufactured by Nihon Kohden Kabushiki Kaisha). The catheter was inserted into the abdominal aorta via the median coccygcal artery of SHR under light ether anesthesia. The recordings were made on a rectigraph (manufactured by Sanei Sokki Kabushiki Kaisha). The 1,4-dihydropyridine derivatives prepared in the foregoing examples were administered with catheter which was inserted previously into the caudal vein or duodenum at least two hours after the operation. SHR were restrained with wire mesh cage immediately after the operation.

A short description of a further data set: in vivo. Conditions: mouse, iv. Here is the method: Acute toxicity of several derivatives was tested with male ddy mice weighed 15-30 grams by the up and down method. Each derivative was dissolved in 1.5% PVP/ethanol solution, and diluted with a saline solution. Such derivative solution was injected into the caudal vein, and the acute toxicity was determined.

Data set [4] has as its system Male SHR, systolic blood pressure. The data set can be described thus: Systolic blood pressure by tail cuff method, oral administration (3 mg/kg), Table 4. It is filed as in vivo, rat. Conditions: conscious SHR; for Duration: '24<' means greater than 24. Here is the method:
Systolic blood pressure was measured by the tail cuff method with electrophygmomanometer (PE-300, made by Narco Co.). Each derivative (3 mg/kg) was administered orally, suspended in 5% gum arabic solution.

[5] abbreviates: male ddy mice, caudal vein injection, '60<' means greater than 60.

For orientation: LD50 means the dose expected to kill half of the subjects tested. As for `COC(=O)C1=C(C)NC(C)=C(C(=O)OCC/C=C/c2ccc3ccccc3c2)C1c1cccc([N+](=O)[O-])c1` (stereo not drawn) [12 (trans), 4-β-naphthyl-3-butenyl methyl 4-(3-nitrophenyl)-2,6-dimethyl-1,4-dihydropyridine-3,5-dicarboxylate], in data set [1] (10 μg/kg i.v.), the “Depressure Response MaxΔBP” value was determined as 21.7 mmHg, the “Depressure Response Peak” value is listed as 2.8 min, the “MaxΔHR (Heart rates)” value worked out at 43.3 beats/min and the “T 1/2 (Halflife)” value worked out at 11.3 min. Moreover, in data set [1] (30 μg/kg i.v.), the “Depressure Response MaxΔBP” value worked out at 54.8 mmHg, the “Depressure Response Peak” value was 4.1 min, the “MaxΔHR (Heart rates)” value amounted to 90.0 beats/min and the “T 1/2 (Halflife)” value came out at 16.0 min. In addition, in data set [1] (100 μg/kg i.v.), the “Depressure Response MaxΔBP” value was found to be 72.5 mmHg, the “Depressure Response Peak” value amounted to 4.3 min, the “MaxΔHR (Heart rates)” value is listed as 80.0 beats/min and the “T 1/2 (Halflife)” value is listed as 37.5 min. Also, in data set [1], the ED40 turned out to be 0.0199 mg/kg. Besides, in data set [2], the “The time to reach the lowest BP” value is 3.0 min, the “ΔBP (Maximum depressor response)” value is on record as 50 mmHg and the Duration is reported as > 90 min. In addition, in data set [3], the “The time to reach the lowest BP” value was 50 min, the “ΔBP (Maximum depressor response)” value amounted to 25 mmHg and the Half-life stood at 100 min. Also, the LD50 in “in vivo” was > 60 mg/kg.
Turning to `COC(=O)C1=C(C)NC(C)=C(C(=O)OCCN(C)Cc2ccccc2)C1c1cccc([N+](=O)[O-])c1.Cl` (stereo not shown) [B, 4-(m-nitrophenyl)-2,6-dimethyl-1,4-dihydropyridine-3,5-dicarboxylic acid-3-methyl ester-5-[2-(benzylmethylamino)-ethyl]ester hydrochloride, reference compound], in data set [2], the “The time to reach the lowest BP” value came to 0.6 min, the “ΔBP (Maximum depressor response)” value turned out to be 58.3 mmHg and the Duration was 45 to 90 min. Also, in data set [3], the “The time to reach the lowest BP” value amounted to 10.7 min, the “ΔBP (Maximum depressor response)” value amounted to 35 mmHg and the Half-life was found to be 46.7 min. For the same compound, in data set [4], the “ΔBP After 1 hour” value is on record as -27 mmHg, the “ΔBP After 3 hours” value was -4.5 mmHg and the Duration was < 3 h. This compound yielded an LD50 in the data set “in vivo” (setting [5]) of 9.7 mg/kg.
As for `COC(=O)C1=C(C)NC(C)=C(C(=O)OCCC=Cc2ccc(C#N)cc2)C1c1cccc([N+](=O)[O-])c1` (stereo not shown) [Example 17, 4-(4-cyanophenyl)-3-butenyl methyl 4-(3-nitrophenyl)-2,6-dimethyl-1,4-dihydropyridine-3,5-dicarboxylate], in data set [2], the “The time to reach the lowest BP” value stood at 1.0 min, the “ΔBP (Maximum depressor response)” value worked out at 70 mmHg and the Duration is listed as > 80 min. Moreover, in data set [3], the “The time to reach the lowest BP” value was 180 min, the “ΔBP (Maximum depressor response)” value is listed as 25 mmHg and the Half-life is > 200 min. In “in vivo” (setting [5]), this compound displayed an LD50 of 45 mg/kg.
In the case of `COC(=O)C1=C(C)NC(C)=C(C(=O)OCCC=Cc2ccc(SC)cc2)C1c1cccc([N+](=O)[O-])c1` (stereo not shown) [Example 24, 4-(p-methylthiophenyl)-3-butenylmethyl 4-(3-nitrophenyl)-2,6-dimethyl-1,4-dihydropyridine-3,5-dicarboxylate], in data set [2], the “The time to reach the lowest BP” value is recorded as 2.1 min, the “ΔBP (Maximum depressor response)” value came to 60 mmHg and the Duration is on record as 120 min. In data set [3], the “The time to reach the lowest BP” value was 160 min, the “ΔBP (Maximum depressor response)” value came out at 27 mmHg and the Half-life is > 160 min. The LD50 in the data set “in vivo” (setting [5]) stood at 50 mg/kg.
For `COC(=O)C1=C(C)NC(C)=C(C(=O)OCC#Cc2ccccc2)C1c1cccc([N+](=O)[O-])c1` (stereo not shown) [Example 55, Methyl phenylpropargyl 4-(3-nitrophenyl)-2,6-dimethyl-1,4-dihydropyridine-3,5-dicarboxylate], in data set [2], the “The time to reach the lowest BP” value is 2 min, the “ΔBP (Maximum depressor response)” value is listed as 55 mmHg and the Duration is recorded as > 90 min. For the same compound, in data set [3], the “The time to reach the lowest BP” value is 60 min, the “ΔBP (Maximum depressor response)” value is recorded as 45 mmHg and the Half-life is > 240 min. In data set [4], the “ΔBP After 1 hour” value is on record as -65 mmHg, the “ΔBP After 3 hours” value is -75 mmHg and the Duration was > 24 h. For the same compound, in “in vivo” (setting [5]), the median lethal dose (LD50) was > 60 mg/kg.
Consider `COC(=O)C1=C(C)NC(C)=C(C(=O)OCC/C=C\c2ccc3ccccc3c2)C1c1cccc([N+](=O)[O-])c1` (stereo not drawn) [Example 57, Methyl (Z)-4-(2-naphthyl)-3-butenyl 4-(3-nitrophenyl)-2,6-dimethyl-1,4-dihydropyridine-3,5-dicarboxylate (cis)], for which, in data set [1] (10 μg/kg i.v.), the “Depressure Response MaxΔBP” value was found to be 12.0 mmHg, the “Depressure Response Peak” value is given as 3.2 min, the “MaxΔHR (Heart rates)” value is 23.3 beats/min and the “T 1/2 (Halflife)” value amounted to 14.0 min. For the same compound, in data set [1] (30 μg/kg i.v.), the “Depressure Response MaxΔBP” value turned out to be 26.8 mmHg, the “Depressure Response Peak” value stood at 2.6 min, the “MaxΔHR (Heart rates)” value is reported as 62.5 beats/min and the “T 1/2 (Halflife)” value is listed as 15.0 min. Further, in data set [1] (100 μg/kg i.v.), the “Depressure Response MaxΔBP” value was determined as 68.5 mmHg, the “Depressure Response Peak” value was 3.8 min, the “MaxΔHR (Heart rates)” value was determined as 120 beats/min and the “T 1/2 (Halflife)” value is 25.0 min. In addition, in data set [1], the ED40 turned out to be 0.0408 mg/kg. In addition, in data set [2], the “The time to reach the lowest BP” value was 2.6 min and the “ΔBP (Maximum depressor response)” value is 26.8 mmHg. In the data set “in vivo” (setting [5]), the LD50 is > 75 mg/kg.
